Assay results published in publication PMC9218946, “Identification of a Subtype-Selective Allosteric Inhibitor of GluN1/GluN3 NMDA Receptors” (Frontiers in Pharmacology, 2022).

What was measured:
[1] = target: T1, chimera GluN3A^670-673 MWPL/LEPF (UniProt Q05586+Q9R1M7, L673F/M670L/W671E); assay: Whole-cell patch-clamp on transiently transfected CHO cells, GluN3A chimera; assay type: cell-based
T1 construct: expressed in transfected cells; host or cells: CHO, transient
Description: (§1) To establish GluN1/GluN3A stable cell lines, the human GluN1-1a (GenBank: NP_015566.1) and the rat GluN3A (GenBank: NP_612555.1) genes were subcloned into the pcDNA5-FRT-To and pcDNA3.1 vectors, respectively. An EGFP tag was added to the C-terminus of GluN1 or GluN3A using a T2A linker for identification of transfected cells during transient transfection. Point mutations were introduced by site-directed mutagenesis using PrimeSTAR (Takara). The human GluN2A (GenBank: NP_000824.1) gene was subcloned into the pcDNA3.1 vector. The chimeras GluN3A^670-673 MWPL/LEPF and GluN2A^550-553 LEPF/MWPL were generated using In-Fusion HD Cloning kits (Takara). All constructs were confirmed by DNA sequencing (Beijing Genomics Institute).
(§2) The Flp-in T-Rex 293 cell lines (Invitrogen), stably expressing GluN1/GluN3A were grown in DMEM basal medium (Gibco) supplemented with 10% fetal bovine serum (FBS, Invitrogen), 15 μg/ml blasticidin S (Invitrogen), 50 μg/ml hygromycin B (Invitrogen) and 500 μg/ml G418 (Gibco). Expression in cell lines was induced with 1 μg/ml doxycycline (Invitrogen) 24–28 h prior to the experiments. Chinese hamster ovary (CHO) cells were grown in DMEM-F12 basal medium (Gibco) supplemented with 10% FBS. In the study on the action sites of WZB117, all whole-cell patch-clamp recordings were performed on CHO cells. […]

[2] = system: GluN1/GluN3A with mutations in the pre-M1 region of the GluN1 subunit; assay: Whole-cell patch-clamp on transiently transfected CHO cells, GluN1 pre-M1 alanine mutants; assay type: cell-based
Description: as §1, §2

GluN1/GluN3A receptors [3] = target: T2, GluN1/GluN3A receptors (UniProt Q05586+Q9R1M7); assay: Whole-cell patch-clamp recording on GluN1/GluN3A Flp-in T-REx 293 stable cell lines; assay type: cell-based, human GluN1-1a, rat GluN3A; design: expressed in transfected cells
T2 sequence (Q9R1M7 24-1135, other chains not shown): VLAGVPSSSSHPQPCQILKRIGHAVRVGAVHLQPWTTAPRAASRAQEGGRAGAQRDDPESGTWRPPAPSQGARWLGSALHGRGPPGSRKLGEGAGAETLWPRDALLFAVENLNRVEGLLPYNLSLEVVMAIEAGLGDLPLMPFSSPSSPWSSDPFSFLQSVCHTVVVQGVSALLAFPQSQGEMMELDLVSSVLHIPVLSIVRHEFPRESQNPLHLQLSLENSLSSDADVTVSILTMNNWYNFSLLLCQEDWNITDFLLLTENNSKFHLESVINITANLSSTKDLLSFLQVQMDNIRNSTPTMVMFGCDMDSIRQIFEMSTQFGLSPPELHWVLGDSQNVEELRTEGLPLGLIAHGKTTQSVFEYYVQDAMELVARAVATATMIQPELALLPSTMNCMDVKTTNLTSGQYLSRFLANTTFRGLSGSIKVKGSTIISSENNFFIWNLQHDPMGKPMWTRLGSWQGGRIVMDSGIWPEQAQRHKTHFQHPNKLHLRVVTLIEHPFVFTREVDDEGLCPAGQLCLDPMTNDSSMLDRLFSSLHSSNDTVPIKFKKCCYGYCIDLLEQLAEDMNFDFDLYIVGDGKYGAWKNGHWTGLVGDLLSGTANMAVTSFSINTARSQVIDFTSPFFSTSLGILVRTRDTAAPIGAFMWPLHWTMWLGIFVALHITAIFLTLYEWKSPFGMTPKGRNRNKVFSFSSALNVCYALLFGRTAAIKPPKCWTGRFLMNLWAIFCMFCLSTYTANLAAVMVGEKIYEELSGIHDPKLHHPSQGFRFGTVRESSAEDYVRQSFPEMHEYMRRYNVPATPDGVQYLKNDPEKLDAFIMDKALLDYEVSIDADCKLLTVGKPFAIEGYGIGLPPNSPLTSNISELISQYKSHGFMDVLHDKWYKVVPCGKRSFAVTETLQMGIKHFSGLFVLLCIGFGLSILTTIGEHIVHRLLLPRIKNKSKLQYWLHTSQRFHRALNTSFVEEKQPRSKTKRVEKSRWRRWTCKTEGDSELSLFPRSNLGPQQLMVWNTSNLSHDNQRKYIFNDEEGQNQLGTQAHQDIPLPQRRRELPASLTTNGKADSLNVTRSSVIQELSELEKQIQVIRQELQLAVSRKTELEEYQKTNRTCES
Description: as §1
The Flp-in T-Rex 293 cell lines (Invitrogen), stably expressing GluN1/GluN3A were grown in DMEM basal medium (Gibco) supplemented with 10% fetal bovine serum (FBS, Invitrogen), 15 μg/ml blasticidin S (Invitrogen), 50 μg/ml hygromycin B (Invitrogen) and 500 μg/ml G418 (Gibco). Expression in cell lines was induced with 1 μg/ml doxycycline (Invitrogen) 24–28 h prior to the experiments. Chinese hamster ovary (CHO) cells were grown in DMEM-F12 basal medium (Gibco) supplemented with 10% FBS. In the study on the action sites of WZB117, all whole-cell patch-clamp recordings were performed on CHO cells. The transfections were carried out using Lipofectamine 3000 transfection reagent (Thermo Fisher) according to the manufacturer’s instructions. All cells mentioned above were cultured in a 5% CO2 incubator at 37°C and passaged every other day at a ratio of 1:3.
Whole-cell patch-clamp recordings were performed at room temperature (22–25°C) using an EPC-10 amplifier and Patch Master Software (HEKA). Pipettes were pulled from borosilicate glass capillaries (World Precision Instruments), and the resistances were 3–5 MΩ when filled with the intracellular solution. The extracellular solution contained (in mM): 140 NaCl, 2.8 KCl, 1 CaCl2, 10 HEPES and 20 sucrose (290–300 mOsm), pH adjusted to 7.3 using NaOH. The pipette solution contained (in mM): 115 CsF, 10 CsCl, 10 HEPES and 10 BAPTA (280–290 mOsm), pH adjusted to 7.2 using CsOH ([Grand et al., 2018]). When recording in hippocampal neurons, the extracellular solution contained (in mM): 140 NaCl, 5 KCl, 1 CaCl2, 1.25 MgCl2, 10 glucose, and 10 HEPES, and the pH was adjusted to 7.4 using NaOH, and the pipette solution contained (in mM): 140 KCl, 1 MgCl2, 10 EGTA, and 10 HEPES, and the pH was adjusted to 7.2 using KOH ([Xie et al., 2020]). Drug-containing solutions were applied through an RSC-200 Rapid Solution Changer with a 9-tube head (BioLogic Co., France), in which the cell is positioned close to the output of a capillary. The solution, containing either one drug or a combination of different drugs, to be assayed flows out of the capillary at a moderate flow rate by gravity. The lifted cell, exposed to this stream, rapidly equilibrates in the perfusion solution. Whole-cell patch-clamp recordings in heterologous cells and hippocampal neurons were performed at a holding potential of −60 mV. Currents were sampled at 10 kHz and low pass filtered at 2.9 kHz. To record the native GluN1/GluN3 receptor-mediated currents, the extracellular solution was supplemented with 10 μM bicuculline (Sigma-Aldrich), 2 μM NBQX (Topscience), 100 μM D-APV (MCE), and 50 μM strychnine (UHN Shanghai) to block γ-aminobutyric acid type A (GABAA), α-amino-3-hydroxy-5-methylisoxazole-4-propionate (AMPA), GluN1/GluN2 NMDA and glycine receptors, respectively. To record the native GluN2-NMDARs-mediated currents, 10 μM bicuculline and 2 μM NBQX were added into the extracellular solution to block GABAA receptors and AMPA receptors, respectively ([Grand et al., 2018]; [Otsu et al., 2019]; [Zhu et al., 2020]).
Patch-clamp data were processed using Clampfit 10.4 (Molecular Device, Sunnyvale, CA, United States) and analyzed with GraphPad Prism 5.0 (GraphPad Software, San Diego, CA, United States). […]

GluN1/GluN3A receptors [4] = target: T2, GluN1/GluN3A receptors; assay: TEVC recording in Xenopus oocytes expressing GluN1/GluN3A; assay type: cell-based; design: expressed in transfected cells; host or cells: Xenopus oocytes (cDNA/cRNA injection); details: 30 μM WZB117, Xenopus oocytes
Description: Two-electrode voltage-clamp (TEVC) recordings were performed on Xenopus oocytes expressing various subtypes of recombinant NMDARs. Each oocyte was injected with a mixture of 0.5–1.0 ng cDNAs or cRNAs encoding wild-type (WT) or mutant GluN1 (GluN1-1a or GluN1-4a) and GluN2 (2A-2D) or GluN3 (3A-3B) at a ratio of 1:1. The mutant GluN1-4a ^F484A/T518L was injected together with GluN3B to boost the currents of GluN1/GluN3B receptors, and WT GluN1-1a was used unless otherwise stated. The cRNAs of GluN1-4a, GluN3A and GluN3B were transcribed from corresponding DNAs using the mMESSAGE mMACHINE T7 Ultra kit (Life Technologies) according to the manufacturer’s instructions, and the others not specified were cDNAs. TEVC recording was performed 24–72 h post injection in extracellular solution containing (in mM): 100 NaCl, 0.3 BaCl2, 2.5 KCl, 0.01 DTPA and 5 HEPES, and the pH was adjusted to 7.3 using NaOH. All recordings were carried out at a holding potential of −60 mV.

T1 sequence (Q9R1M7 24-1135 M670L/W671E/L673F, other chains not shown): as the sequence (Q9R1M7 24-1135, other chains not shown) above, with M647L, W648E, L650F counted along it

inhibition on chimera [1]: greatly reduced
IC50 (GluN1/GluN3A receptors [3]; 10 μM glycine): 1.08 ± 0.31 µM
IC50 (GluN1/GluN3A receptors [3]; 100 μM glycine, pH 7.3, holding potential −60 mV): 1.15 ± 0.34 µM
remaining activity at 3 µM (GluN1/GluN3A receptors [3]; Flp-In-T-REx-293, read-out: I drug/I control): 8 ± 2%
inhibition of currents (GluN1/GluN3A receptors [4]): potently suppressed
Structure (SMILES): O=C(Oc1cccc(F)c1OC(=O)c1cccc(O)c1)c1cccc(O)c1 [WZB117, 3-fluoro-1,2-phenylene bis(3-hydroxybenzoate)]
influence of mutations on activity [2]: none of the mutations in the pre-M1 region of the GluN1 subunit showed a detectable influence
